# According to patent US5714347A (priority 1995, dated 1998):
# Read-outs that look alike come from different tables or passages of the source.
# Legend:
# [1] = test system: periplasmic carboxypeptidase in E. coli BL21 (DE3) extracts; format: biochemical
# Protocol: The pI shift upon incubation of ubiquitin with carboxypeptidase B was used as a convenient assay to test for carboxyl terminal glycine dipeptide processing in E. coli BL21 (DE3) extracts.
# We tested a variety of metal salts for the ability to inhibit ubiquitin inactivation.
# [2] = test system: carboxypeptidase B; experiment: pI shift assay (isoelectric focusing after carboxypeptidase B) for intact carboxyl terminal glycine dipeptide
# Source text: Previous work has shown that the carboxyl terminal glycine dipeptide of ubiquitin is acutely sensitive to cleavage by trypsin-like activities (Haas, A. L., et al., J. Biol. Chem. 260:4694-4703, 1985; Wilkinson, K. D. and Audhya, T. K., J. Biol. Chem. 256:9235-9241, 1981). […] The specificity of carboxypeptidase B for lysine and arginine precludes a similar pI shift for intact ubiquitin in which R74 is masked by the glycine dipeptide (Haas, A. L., et al., supra, 1985).
# [3] = test system: rabbit reticulocyte ubiquitin activating enzyme (E1); format: biochemical
# Protocol: The incorporation of ^32 PPi into ATP was measured by adsorbing the resulting ^32 P-labeled ATP onto charcoal and counting the bound radioactivity by Cerenkov radiation (Haas, A. L. and Rose, I. A., supra, 1982). Nonspecifically-bound ^32 PPi was corrected by subtracting radioactivity in control incubations conducted in the absence of added E1 (Haas, A. L. and Rose, I. A., supra, 1982).
# Since these measurements were conducted in the absence of added AMP, the kinetic constants reflect step 3 of the E1 reaction involving formation of the final ternary complex (Haas, A. L. and Rose, I. A. J. Biol. Chem., .supra, 1982).
# [4] = test system: A549 human lung carcinoma cell extract; experiment: In vitro conjugation of 125I-UCRP to cellular proteins; format: biochemical; conditions: for inhibition of 125I-UCRP conjugation by excess unlabeled protein: isotope dilution, parallel incubations
# Protocol: Confluent monolayer cultures of A549 human lung carcinoma cells were grown in Dulbecco's modified Eagle's medium supplemented with 10% (v/v) heat-inactivated fetal bovine serum. Cultures were maintained at 37° C. in a humidified 5% CO2 atmosphere. Cultures of A549 cells were induced by adding IFNβ to a final concentration of 1000 IU/ml (Loeb, K. R. and Haas, A. L., supra, 1992). Following 24 hours induction, cells were rinsed twice with PBS then harvested by scraping directly into 50 mM Tris-Cl (pH 7.6) containing 2 mMATP, 10 mM MgCl2, and 1 mM DTT (100 μl/100 mm plate). The cells were then briefly sonicated and the extracts used without further fractionation.
# [5] = test system: rabbit reticulocyte ubiquitin activating enzyme (E1); conditions: cited from earlier work
# [6] = test system: A549 human lung carcinoma cell extract; conditions: previous preparations, Loeb and Haas 1992; Loeb 1993; cited from earlier work
# [7] = molecular target: T1, ubiquitin activating enzyme (E1) (Oryctolagus cuniculus, UniProt Q29504); experiment: Stoichiometry and kinetics of E1-bound adenylate formation (TCA-precipitable radioactivity with [2,8-3H]ATP); format: biochemical; conditions: for [3H]adenylate formation: 1 pmol of E1, inorganic pyrophosphatase
# T1 construct: from rabbit reticulocytes, rabbit liver, and human erythrocytes; from tissue; host or cells: rabbit reticulocytes (inferred for this assay)
# T1 sequence (Q29504 1-1058): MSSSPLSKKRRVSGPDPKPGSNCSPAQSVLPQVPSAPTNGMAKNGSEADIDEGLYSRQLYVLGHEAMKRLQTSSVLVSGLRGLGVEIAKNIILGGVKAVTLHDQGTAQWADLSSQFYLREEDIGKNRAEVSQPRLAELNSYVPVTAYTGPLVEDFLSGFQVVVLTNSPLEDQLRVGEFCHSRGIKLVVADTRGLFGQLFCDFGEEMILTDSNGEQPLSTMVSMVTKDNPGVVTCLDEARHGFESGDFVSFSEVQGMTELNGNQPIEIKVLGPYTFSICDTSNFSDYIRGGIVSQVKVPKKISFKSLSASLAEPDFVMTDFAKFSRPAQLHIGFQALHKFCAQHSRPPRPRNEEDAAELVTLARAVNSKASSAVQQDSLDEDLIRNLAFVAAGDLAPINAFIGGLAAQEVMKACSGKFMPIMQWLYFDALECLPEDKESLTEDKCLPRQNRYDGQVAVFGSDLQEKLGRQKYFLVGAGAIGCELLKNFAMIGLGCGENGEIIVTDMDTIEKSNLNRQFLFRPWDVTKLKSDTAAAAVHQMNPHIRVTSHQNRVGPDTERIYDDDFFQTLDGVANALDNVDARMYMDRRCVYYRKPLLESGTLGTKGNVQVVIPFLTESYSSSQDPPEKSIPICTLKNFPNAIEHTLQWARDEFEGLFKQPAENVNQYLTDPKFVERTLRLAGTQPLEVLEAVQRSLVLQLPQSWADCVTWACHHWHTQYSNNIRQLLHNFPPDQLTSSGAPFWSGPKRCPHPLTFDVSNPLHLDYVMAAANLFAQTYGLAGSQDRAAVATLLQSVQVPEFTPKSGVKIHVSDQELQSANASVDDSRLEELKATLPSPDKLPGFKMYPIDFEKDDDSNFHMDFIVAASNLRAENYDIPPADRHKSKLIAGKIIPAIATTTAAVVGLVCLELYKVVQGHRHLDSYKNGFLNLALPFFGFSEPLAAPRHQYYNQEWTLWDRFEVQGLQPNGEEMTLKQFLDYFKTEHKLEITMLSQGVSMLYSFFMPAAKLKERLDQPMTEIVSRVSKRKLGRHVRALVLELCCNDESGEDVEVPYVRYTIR
# Source text: Recent studies by Burch and Haas have shown that mutagenesis of specific ubiquitin residues sufficiently compromises binding of the resulting adenylate within the E1 active site to allow dissociation of the intermediate (Burch, T. J. and Haas, A. L., supra, 1994). The free but not the bound pool of ubiquitin [^3 H]adenylate is sensitive to cleavage by ubiquitin carboxyl terminal hydrolase (Burch, T. J. and Haas, A. L., supra, 1994; Pickart, C. M. and Rose, I. A., J. Biol. Chem. 260:7903-7910,1985).
molecule,measurement,setting,value
[Cl][Cd][Cl] [CdCl2],inhibiting UCRP inactivation,[1],effective
[Cl-].[Cl-].[Co+2] [CoCl2],ubiquitin and UCRP glycine dipeptide excision,[1]; 5 mM,quantitatively blocks
same,inhibiting ubiquitin inactivation,[1]; among the metal salts tested,most effective
O=C(O)CN(CCN(CC(=O)O)CC(=O)O)CC(=O)O [EDTA],rate of ubiquitin inactivation,[1],stimulated
[Cl][Hg][Cl] [HgCl2],inhibiting UCRP inactivation,[1],effective
UCRP generated from UCRP-R: Intact UCRP resulting from removal of the arginine cap of purified UCRP-R,pI shift upon incubation with carboxypeptidase B,[2],absence of a pI shift
same,K1/2,"[3]; UCRP 5 to 50 μM, 20 nM E1, 37° C., absence of added AMP (step 3)",24 µM
"^125 I-UCRP: Intact UCRP isolated in the presence of CoCl2, labeled with 125I",dependence of conjugation on ATP and ATP regenerating system,[4]; both extracts,absolutely dependent
same,rate of conjugation to cellular proteins,"[4]; extracts from A549 cultures induced 24 hours with 1000 IU/ml interferon-β (+IFN), versus uninduced",significantly greater
same,rate of conjugation to cellular proteins,"[4]; extracts from uninduced cells (-IFN), 90 minutes incubation",low but measurable rate
"pure intact native UCRP: Pure intact native UCRP, K1/2 from Narasimhan et al. 1996",K1/2,"[5]; pure intact native UCRP, Narasimhan et al. 1996 in press",24 µM
"recombinant ^125 I-UCRP: Radioiodinated recombinant UCRP of the previous, proteolytically inactivated preparations",conjugation when added to fresh extracts of A549 cells,[6],unable to demonstrate conjugation
ubiquitin,first order rate constant of [3H]adenylate formation,[7],≥ 6 min⁻¹
same,[3H]adenylate formation,[7]; within a 1 minute incubation,equivalent amount
same,inhibition of 125I-UCRP conjugation by excess unlabeled protein,[4],not
same,K1/2,"[5]; step 3 of ubiquitin-supported reaction, values taken from Haas and Rose 1982",1.2 µM
same,substrate inhibition,"[5]; ubiquitin at high concentrations, Haas and Rose 1982",pronounced substrate inhibition
same,kcat,"[5]; ubiquitin-supported reaction, values taken from Haas and Rose 1982",9.6 s⁻¹
ubiquitin cross-reactive protein [UCRP],first order rate constant of [3H]adenylate formation,[7],0.42 min⁻¹
same,[3H]adenylate formation,[7]; after 5 minutes,0.11 pmol
same,inhibition of 125I-UCRP conjugation by excess unlabeled protein,[4],marked inhibition
same,K1/2,[3],24 µM
same,substrate inhibition,[3],no substrate inhibition
